Measured values from article PMC8933034, “6-Amino-2,4,5-trimethylpyridin-3-ol and 2-amino-4,6-dimethylpyrimidin-5-ol derivatives as selective fibroblast growth factor receptor 4 inhibitors: design, synthesis, molecular docking, and anti-hepatocellular carcinoma efficacy evaluation” (Journal of Enzyme Inhibition and Medicinal Chemistry, 2022).
Where “and” joins values, the source holds several entries; their conditions need not be identical. Equal entries are not always repeated.

Assays:
Hep3B cells = experiment: Cell proliferation assay (MTT), Hep3B; type: cell-based, human; details: for IC50: Homo sapiens, Hep3B, 48 h treatment, mean ± SEM of three independent experiments
Description: (§1) Human HCC cell lines, Hep3B and Huh7 were obtained from American Type Culture Collection (ATCC, Manassas, VA, USA). An H6c7 human normal pancreatic duct epithelial cell line was purchased from Kerafast (Boston, MA, USA). Hep3B and Huh7 cells were cultured in Dulbecco′s Modified Eagle′s Medium (DMEM) (Hyclone, Logan, UT, USA). The media were supplemented with 10% foetal bovine serum (FBS) (Gibco/ThermoFisher Scientific) and 1% penicillin/streptomycin (Gibco/ThermoFisher Scientific). H6c7 cells were maintained in a keratinocyte serum-free medium supplemented with a recombinant […] growth factor (rEGF) and bovine pituitary extract (Gibco/ThermoFisher Scientific). All the cells were incubated at 37 °C under a 5% CO2 atmosphere.
(§2) Cells were seeded at a density of 5000 cells/well in a 96-well plate. After overnight incubation, the cells were serum-starved using 1% FBS for 24 h. The next day, the cells were pre-treated with the different concentrations (0.1, 1, 3, 10, 30, 100 µM) of drugs for 1 h prior to the treatment with serum (10% FBS). After 48 h of incubation, 3–(4,5-dimethylthiazol-2-yl)-2,5-diphenyltetrazolium bromide (MTT) dye solution was added and incubated for 4 h. Next, DMSO was added, and after 30 min, the colour intensities were measured using a microplate reader (Versamax, Molecular Devices, Inc., USA) at 490 nm.

Huh7 cells = experiment: Cell proliferation assay (MTT), Huh7; type: cell-based, human; details: for IC50: Homo sapiens, Huh-7, 48 h treatment, mean ± SEM of three independent experiments; for difference of anti-proliferative activity between Hep3B and Huh7: Huh7 versus Hep3B, 48 h
Description: as §1, §2

[1] = Cytotoxicity assay (MTT), H6c7; type: cell-based; details: human, H6c7 normal pancreatic duct epithelial cells, 48 h treatment, mean ± SEM of three independent experiments, read-out: IC50 on cell viability (cytotoxicity), H6c7
Description: as §1
The cytotoxicity of the compounds was assessed by measuring the cell viability decrease using the MTT staining method. Briefly, H6c7 cells were seeded in a 96-well plate (Falcon, USA) at a density of 4 × 10^4 cells per well in keratinocyte serum-free medium. After 24 h, Cells were incubated with different concentrations (0.1, 1, 3, 10, 30, and 100) µM of each compound for 48 h, and the cell viability was measured using MTT assay. Optical density was measured at 540 nm using a microplate reader (BMG LABTECH).

[2] = test system: Hep3B-xenografted CAM tumour model; experiment: CAM (chick chorioallantoic membrane) tumour model implanted with Hep3B cells; type: in vivo
Description: Fertile chicken eggs were purchased from Byeolbichon Farm (Gyeongbuk, South Korea) and incubated at 37 °C and under 55% relative humidity. On the 9th day of egg incubation (post-fertilization), false air sac was generated on the relatively flat side of eggs by a negative pressure technique. A small window (1 cm^2) was created on the false air sac surface of the eggs by separating the shell and membrane beneath (technique) using a grinding wheel (Dremel, Racine, WI, USA). Next, Hep3B cells were loaded at a density of 1.5 × 10^6 cells/CAM with or without compound. After four days of drug treatment, the tumour weight, number of vessel branch points within the tumour region were analysed.

human FGFR4 kinase = biological target: T1, human FGFR4 kinase (Homo sapiens, UniProt P22455); experiment: FGFR4 kinase assay (Kinase HotSpot, Reaction Biology Corp.); type: biochemical; details: for inhibition at 1 µM: fixed concentration 1 μM, mean of two independent experiments; for inhibition at 0.01 µM: 0.01 μM concentration, two independent experiments
T1 construct: purchased Reaction Biology Corporation (Malvern, PA, USA), contract assay service
T1 sequence (P22455 22-802): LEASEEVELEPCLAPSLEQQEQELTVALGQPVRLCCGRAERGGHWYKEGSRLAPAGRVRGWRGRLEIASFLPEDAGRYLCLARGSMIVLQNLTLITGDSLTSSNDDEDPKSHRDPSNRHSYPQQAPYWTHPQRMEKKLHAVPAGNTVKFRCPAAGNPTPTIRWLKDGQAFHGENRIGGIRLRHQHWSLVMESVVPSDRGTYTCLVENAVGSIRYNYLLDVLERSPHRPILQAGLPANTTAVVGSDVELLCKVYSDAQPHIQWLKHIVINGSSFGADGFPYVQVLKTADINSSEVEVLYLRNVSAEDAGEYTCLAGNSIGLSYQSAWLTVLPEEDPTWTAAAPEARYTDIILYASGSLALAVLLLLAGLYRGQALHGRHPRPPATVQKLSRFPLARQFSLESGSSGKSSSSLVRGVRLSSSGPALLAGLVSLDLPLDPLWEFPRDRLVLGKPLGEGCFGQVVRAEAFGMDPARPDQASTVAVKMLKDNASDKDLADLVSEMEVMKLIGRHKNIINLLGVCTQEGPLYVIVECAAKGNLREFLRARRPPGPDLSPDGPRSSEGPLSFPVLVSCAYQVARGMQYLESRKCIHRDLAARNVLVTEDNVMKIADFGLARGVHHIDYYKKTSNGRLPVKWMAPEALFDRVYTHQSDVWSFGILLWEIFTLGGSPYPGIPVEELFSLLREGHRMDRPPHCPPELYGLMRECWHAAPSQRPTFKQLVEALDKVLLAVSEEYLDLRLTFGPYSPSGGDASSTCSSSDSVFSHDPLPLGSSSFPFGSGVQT
Description: A FGFR4 kinase assay was performed at the Reaction Biology Corporation (Malvern, PA, USA) using a Kinase HotSpotSM assay platform (www.reactionbiology.com, last accessed at 19/10/2020). Briefly, human FGFR4 kinase (5–10 mU), peptide substrate, and poly[Glu:Tyr] (4:1) 0.2 mg/ml were prepared in a reaction buffer with a final volume of 25 µL. The compounds were delivered into the reaction, followed ∼20 min. later by the addition of a mixture of ATP and [γ-^33P-ATP] (specific activity approx. 500 cpm/pmol, concentration as required) to a final concentration of 10 µM. After incubation for 40 min. at 25 °C, the reaction was stopped by the addition of a 3% phosphoric acid solution. Then, the reaction was spotted onto a P30 filtermat, and unbound phosphate was removed by washing 3 times for 5 min in 75 mM phosphoric acid and once in methanol prior to drying and scintillation counting. […] IC50 values and curve fits were obtained using GraphPad Prism 5 software.

FGFR1 = biological target: T2, FGFR1 (Homo sapiens, UniProt P11362); experiment: FGFR1 ADP-glow kinase assay; type: biochemical
T2 construct: purchased Promega, WI, USA
T2 sequence (P11362 22-822): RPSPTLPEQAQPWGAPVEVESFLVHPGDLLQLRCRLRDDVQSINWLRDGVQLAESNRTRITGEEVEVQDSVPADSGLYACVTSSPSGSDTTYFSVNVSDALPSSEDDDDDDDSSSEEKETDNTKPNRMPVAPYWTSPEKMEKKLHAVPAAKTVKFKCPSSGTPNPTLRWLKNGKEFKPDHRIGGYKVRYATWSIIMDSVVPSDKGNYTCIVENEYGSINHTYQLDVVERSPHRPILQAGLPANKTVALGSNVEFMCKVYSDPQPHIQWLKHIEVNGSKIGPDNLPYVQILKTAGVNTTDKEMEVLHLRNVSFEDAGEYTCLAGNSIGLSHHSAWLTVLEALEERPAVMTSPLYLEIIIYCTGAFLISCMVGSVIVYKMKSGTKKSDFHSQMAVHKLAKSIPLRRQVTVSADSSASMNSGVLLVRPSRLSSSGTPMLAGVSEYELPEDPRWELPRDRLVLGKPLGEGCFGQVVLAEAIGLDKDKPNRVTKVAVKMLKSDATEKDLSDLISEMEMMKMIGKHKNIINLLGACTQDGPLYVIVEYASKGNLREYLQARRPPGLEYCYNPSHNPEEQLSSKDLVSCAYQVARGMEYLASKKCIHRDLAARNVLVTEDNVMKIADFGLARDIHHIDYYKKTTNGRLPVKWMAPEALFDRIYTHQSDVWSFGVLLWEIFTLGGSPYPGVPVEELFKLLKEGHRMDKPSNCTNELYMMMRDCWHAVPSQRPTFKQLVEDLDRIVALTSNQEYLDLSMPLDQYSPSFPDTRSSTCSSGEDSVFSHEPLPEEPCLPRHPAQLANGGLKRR
Description: (§3) FGFR1 ∼ 3 kinase assays were performed using the adenosine diphosphate (ADP)-glow kinase assay kit of FGFR1, FGFR2, and FGFR3 kinase enzyme systems (Promega, WI, USA) in accordance with the manufacturer’s instructions. […] The reaction was carried out at 25 °C for 1 h in a total volume of 25 µL. Subsequently, 25 µL of ADP-Glow reagent was added to the mixture, and then incubated for 40 min at 25 °C. After the addition of 50 µL of ADP detection reagents for 30 min at 25 °C, luminescence was measured using a Fluostar Omega microplate reader (BMG LABTECH GmbH, Ortenberg, Germany).

FGFR2 = biological target: T3, FGFR2 (Homo sapiens, UniProt P21802); experiment: FGFR2 ADP-glow kinase assay; type: biochemical
T3 construct: purchased Promega, WI, USA
T3 sequence (P21802 22-821): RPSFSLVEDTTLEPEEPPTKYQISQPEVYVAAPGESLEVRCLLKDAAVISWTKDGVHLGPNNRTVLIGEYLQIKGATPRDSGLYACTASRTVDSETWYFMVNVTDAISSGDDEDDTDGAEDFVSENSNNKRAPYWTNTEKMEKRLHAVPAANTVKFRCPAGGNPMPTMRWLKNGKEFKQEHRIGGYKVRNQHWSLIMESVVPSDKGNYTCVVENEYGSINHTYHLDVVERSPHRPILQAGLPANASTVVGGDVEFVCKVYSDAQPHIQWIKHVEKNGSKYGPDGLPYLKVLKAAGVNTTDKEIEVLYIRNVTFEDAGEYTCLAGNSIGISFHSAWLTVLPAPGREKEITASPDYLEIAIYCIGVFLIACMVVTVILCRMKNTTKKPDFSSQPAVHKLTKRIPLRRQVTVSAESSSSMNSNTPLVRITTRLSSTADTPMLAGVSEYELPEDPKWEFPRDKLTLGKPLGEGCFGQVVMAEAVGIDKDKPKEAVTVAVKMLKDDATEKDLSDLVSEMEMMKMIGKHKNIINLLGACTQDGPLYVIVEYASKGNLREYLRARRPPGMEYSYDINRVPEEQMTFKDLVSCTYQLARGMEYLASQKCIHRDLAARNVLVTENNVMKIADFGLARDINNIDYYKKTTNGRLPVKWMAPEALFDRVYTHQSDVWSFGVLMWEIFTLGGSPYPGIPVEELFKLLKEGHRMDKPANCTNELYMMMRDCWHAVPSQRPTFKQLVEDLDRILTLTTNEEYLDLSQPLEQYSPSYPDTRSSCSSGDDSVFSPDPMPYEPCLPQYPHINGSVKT
Description: as §3

FGFR3 = biological target: T4, FGFR3 (Homo sapiens, UniProt P22607); experiment: FGFR3 ADP-glow kinase assay; type: biochemical
T4 construct: purchased Promega, WI, USA
T4 sequence (P22607 23-806): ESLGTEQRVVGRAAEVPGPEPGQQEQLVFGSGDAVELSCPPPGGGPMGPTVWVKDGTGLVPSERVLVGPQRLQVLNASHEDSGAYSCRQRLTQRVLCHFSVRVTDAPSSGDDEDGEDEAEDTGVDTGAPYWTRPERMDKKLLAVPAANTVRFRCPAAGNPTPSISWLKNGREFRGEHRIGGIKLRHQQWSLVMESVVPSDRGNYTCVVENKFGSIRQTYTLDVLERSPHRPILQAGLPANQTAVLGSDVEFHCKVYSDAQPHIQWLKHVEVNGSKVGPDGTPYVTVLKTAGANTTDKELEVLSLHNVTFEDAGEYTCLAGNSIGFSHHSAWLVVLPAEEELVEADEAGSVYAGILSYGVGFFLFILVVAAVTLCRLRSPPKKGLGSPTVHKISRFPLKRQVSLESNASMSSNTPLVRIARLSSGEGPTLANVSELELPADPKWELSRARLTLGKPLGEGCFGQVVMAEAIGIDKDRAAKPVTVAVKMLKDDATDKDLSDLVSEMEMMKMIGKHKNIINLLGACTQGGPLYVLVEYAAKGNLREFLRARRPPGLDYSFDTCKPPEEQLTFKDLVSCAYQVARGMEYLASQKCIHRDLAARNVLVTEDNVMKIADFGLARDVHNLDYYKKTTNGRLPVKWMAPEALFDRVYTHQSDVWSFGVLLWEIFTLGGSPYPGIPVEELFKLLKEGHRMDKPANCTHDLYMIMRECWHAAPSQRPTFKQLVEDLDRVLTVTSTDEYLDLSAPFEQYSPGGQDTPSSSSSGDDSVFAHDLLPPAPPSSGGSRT
Description: as §3

Question: Which IC50 (Hep3B cells) does the source give for `C=CC(=O)Nc1cccc(C)c1Nc1ncc2cc(-c3c(Cl)c(OC)cc(OC)c3Cl)ccc2n1` [Compound 1, reference compound] here?
Answer: The IC50 was 900 ± 100 nM.

Question: What about the IC50 (Huh7 cells) of the same molecule?
Answer: The IC50 was 7100 ± 5000 nM.

Question: What about the “difference of anti-proliferative activity between Hep3B and Huh7” value (Huh7 cells) of the same molecule?
Answer: The value was 7 fold.

Question: And the IC50 at 48 h [1]?
Answer: Its IC50 at 48 h is 13400 nM.

Question: And the tumour growth ([2]; four days after Hep3B xenograft on CAM)?
Answer: Its tumour growth is “dose-dependently inhibited”.

Question: And the tumour-induced angiogenesis ([2]; number of new vessel branches on CAM, four days)?
Answer: Its tumour-induced angiogenesis is “significantly blocked”.

Question: For `C=CC(=O)Nc1ccc(N2CCN(CC)CC2)cc1Nc1nc(C)c(OCc2c(F)c(OC)cc(OC)c2F)c(C)n1` [Compound 6AA], which inhibition at 1 µM (human FGFR4 kinase) is on record?
Answer: Its inhibition at 1 µM is 10.3%.

Question: With `C=CC(=O)Nc1cn(C)nc1Nc1nc(C)c(OCc2c(F)c(OC)cc(OC)c2F)c(C)c1C` [Compound 6A] as the molecule, how does the IC50 (human FGFR4 kinase; 7 different concentrations, three independent experiments) read?
Answer: The IC50 was 190 nM.

Question: And the inhibition at 1 µM (human FGFR4 kinase)?
Answer: The inhibition at 1 µM was 62.8%.

Question: And the “Ratio against FGFR4 (FGFR1)” value (FGFR1; ratio of FGFR1 to FGFR4 inhibitory activity)?
Answer: The value was 8.2.

Question: What about the IC50 (FGFR1; three independent experiments) of the same molecule?
Answer: Its IC50 is 1560 nM and 1570 nM.

Question: And the “Ratio against FGFR4 (FGFR2)” value (FGFR2; ratio of FGFR2 to FGFR4 inhibitory activity)?
Answer: The value was 6.0.

Question: What about the IC50 (FGFR2; three independent experiments) of the same molecule?
Answer: Its IC50 is 1150 nM.

Question: And the “Ratio against FGFR4 (FGFR3)” value (FGFR3; ratio of FGFR3 to FGFR4 inhibitory activity)?
Answer: Its value is 1.5.

Question: What about the IC50 (FGFR3; three independent experiments) of the same molecule?
Answer: Its IC50 is 277 nM.

Question: And the “fold less potent than compound 1, Hep3B IC50” value (Hep3B cells; 48 h)?
Answer: Its value is 28 fold.

Question: What about the IC50 (Hep3B cells) of the same molecule?
Answer: Its IC50 is 25200 nM.

Question: And the IC50 (Huh7 cells)?
Answer: The IC50 was 21300 ± 6000 nM.

Question: What about the “difference of anti-proliferative activity between Hep3B and Huh7” value (Huh7 cells) of the same molecule?
Answer: Its value is “did not show a significant difference”.

Question: What about the IC50 at 48 h [1] of the same molecule?
Answer: Its IC50 at 48 h is greater than 100000 nM.

Question: For `C=CC(=O)Nc1ccc(N2CCN(CC)CC2)cc1Nc1nc(C)c(OCc2c(Cl)c(OC)cc(OC)c2Cl)c(C)n1` [Compound 6BB], which inhibition at 1 µM (human FGFR4 kinase) is on record?
Answer: The inhibition at 1 µM was 5.4%.

Question: For `C=CC(=O)Nc1cn(C)nc1Nc1nc(C)c(OCc2c(Cl)c(OC)cc(OC)c2Cl)c(C)c1C` [Compound 6B], which inhibition at 1 µM (human FGFR4 kinase) is on record?
Answer: The inhibition at 1 µM was 16.9%.

Question: Which inhibition at 1 µM (human FGFR4 kinase) does the source give for `C=CC(=O)Nc1cn(C)nc1Nc1nc(C)c(OCc2c(F)c(OC)cc(OC)c2F)c(C)n1` [Compound 6C] here?
Answer: Its inhibition at 1 µM is 22%.

Question: Which inhibition at 1 µM (human FGFR4 kinase) does the source give for `C=CC(=O)Nc1cn(C)nc1Nc1nc(C)c(OCc2c(Cl)c(OC)cc(OC)c2Cl)c(C)n1` [Compound 6D] here?
Answer: The inhibition at 1 µM was 8%.

Question: With `C=CC(=O)Nc1cccc(C)c1Nc1nc(C)c(OCc2c(F)c(OC)cc(OC)c2F)c(C)c1C` [Compound 6E] as the molecule, how does the inhibition at 0.01 µM (human FGFR4 kinase) read?
Answer: Its inhibition at 0.01 µM is 5%.

Question: What about the inhibition at 1 µM (human FGFR4 kinase) of the same molecule?
Answer: The inhibition at 1 µM was 7.2%.

Question: For `C=CC(=O)Nc1cccc(C)c1Nc1nc(C)c(OCc2c(Cl)c(OC)cc(OC)c2Cl)c(C)c1C` [Compound 6F], which inhibition at 1 µM (human FGFR4 kinase) is on record?
Answer: Its inhibition at 1 µM is 5.4%.

Question: Which inhibition at 0.01 µM (human FGFR4 kinase) does the source give for `C=CC(=O)Nc1cccc(C)c1Nc1nc(C)c(OCc2c(F)c(OC)cc(OC)c2F)c(C)n1` [Compound 6G] here?
Answer: The inhibition at 0.01 µM was 3.3%.

Question: And the inhibition at 1 µM (human FGFR4 kinase)?
Answer: Its inhibition at 1 µM is 24.8%.

Question: Which inhibition at 1 µM (human FGFR4 kinase) does the source give for `C=CC(=O)Nc1cccc(C)c1Nc1nc(C)c(OCc2c(Cl)c(OC)cc(OC)c2Cl)c(C)n1` [Compound 6H] here?
Answer: The inhibition at 1 µM was 14%.

Question: With `C=CC(=O)Nc1ccc(Nc2nc(C)c(OCc3c(F)c(OC)cc(OC)c3F)c(C)c2C)c(C)c1` [Compound 6I] as the molecule, how does the inhibition at 1 µM (human FGFR4 kinase) read?
Answer: Its inhibition at 1 µM is 9.7%.

Question: With `C=CC(=O)Nc1ccc(Nc2nc(C)c(OCc3c(Cl)c(OC)cc(OC)c3Cl)c(C)c2C)c(C)c1` [Compound 6J] as the molecule, how does the inhibition at 1 µM (human FGFR4 kinase) read?
Answer: Its inhibition at 1 µM is 5.9%.

Question: Which inhibition at 1 µM (human FGFR4 kinase) does the source give for `C=CC(=O)Nc1ccc(Nc2nc(C)c(OCc3c(F)c(OC)cc(OC)c3F)c(C)n2)c(C)c1` [Compound 6K] here?
Answer: The inhibition at 1 µM was 4.9%.

Question: For `C=CC(=O)Nc1ccc(Nc2nc(C)c(OCc3c(Cl)c(OC)cc(OC)c3Cl)c(C)n2)c(C)c1` [Compound 6L], which inhibition at 1 µM (human FGFR4 kinase) is on record?
Answer: The inhibition at 1 µM was 3.6%.
